The source of these data is patent US9765035B2 (priority 2013, dated 2017).

In experiment [1] the test system is RKO cells, mono-methyl arginine. As to the kind of experiment: RKO Methylation Assay (In Cell Western for mono-methyl arginine). The format is cell-based. The conditions noted are these: Homo sapiens. From the text:
RKO adherent cells were purchased from ATCC (American Type Culture Collection), Manassas, Va., USA. DMEM/Glutamax medium, penicillin-streptomycin, heat inactivated fetal bovine serum, 0.05% trypsin and D-PBS were purchased from Life Technologies, Grand Island, N.Y., USA. Odyssey blocking buffer, 800CW goat anti-rabbit IgG (H+L) antibody, and Licor Odyssey infrared scanner were purchased from Licor Biosciences, Lincoln, Nebr., USA. Mono-methyl arginine antibody was purchased from Cell Signaling Technology, Danvers, Mass., USA. Methanol was purchased from VWR, Franklin, Mass., USA. 10% Tween 20 was purchased from KPL, Inc., Gaithersburg, Md., USA. DRAQ5 was purchased from Biostatus Limited, Leicestershire, UK.
RKO adherent cells were maintained in growth medium (DMEM/Glutamax medium supplemented with 10% v/v heat inactivated fetal bovine serum and 100 units/mL penicillin-streptomycin) and cultured at 37° C. under 5% CO2.
Cell Treatment, in Cell Western (ICW) for Detection of Mono-Methyl Arginine and DNA Content. […] Compound (100 nL) from a 96-well source plate was added directly to 384 well cell plate. Plates were incubated at 37° C., 5% CO2 for 72 hours. After three days of incubation, plates were brought to room temperature outside of the incubator for ten minutes and blotted on paper towels to remove cell media. 50 μL of ice cold 100% methanol was added directly to each well and incubated for 30 min at room temperature. After 30 min, plates were transferred to a Biotek EL406 plate washer and washed 2 times with 100 μL per well of wash buffer (1×PBS). Next 60 μL per well of Odyssey blocking buffer (Odyssey Buffer with 0.1% Tween 20 (v/v)) were added to each plate and incubated 1 hour at room temperature. Blocking buffer was removed and 20 μL per well of primary antibody was added (mono-methyl arginine diluted 1:200 in Odyssey buffer with 0.1% Tween 20 (v/v)) and plates were incubated overnight (16 hours) at 4° C. Plates were washed 5 times with 100 μL per well of wash buffer. […] The plates were washed 5 times with 100 μL per well wash buffer then 2 times with 100 μL per well of water. Plates were allowed to dry at room temperature then imaged on the Licor Odyssey machine which measures integrated intensity at 700 nm and 800 nm wavelengths. Both 700 and 800 channels were scanned.
Calculations: First, the ratio for each well was determined by:
Each plate included fourteen control wells of DMSO only treatment (minimum activation) as well as fourteen control wells for maximum activation treated with 20 μM of a reference compound. The average of the ratio values for each control type was calculated and used to determine the percent activation for each test well in the plate. Reference compound was serially diluted three-fold in DMSO for a total of nine test concentrations, beginning at 20 μM. Percent activation was determined and EC30 curves were generated using triplicate wells per concentration of compound.

For a further experiment, the target named is human PRMT8 (Homo sapiens, UniProt Q9NR22). As to the kind of experiment: biochemical. The conditions noted are these: biochemical evaluation, peptide substrate; read-out: PRMT8 IC50. From the text: General Materials. S-adenosylmethionine (SAM), S-adenosylhomocysteine (SAH), bicine, Tween20, dimethylsulfoxide (DMSO), bovine skin gelatin (BSG), isopropyl-β-D-thiogalactopyranoside (IPTG), and Tris(2-carboxyethyl)phosphine hydrochloride solution (TCEP) were purchased from Sigma-Aldrich at the highest level of purity possible. ^3H-SAM was purchase from American Radiolabeled Chemicals with a specific activity of 80 Ci/mmol. 384-well streptavidin Flashplates were purchased from PerkinElmer.
Chain of human PRMT8 (Q9NR22 whole entry, the tested form may be a part): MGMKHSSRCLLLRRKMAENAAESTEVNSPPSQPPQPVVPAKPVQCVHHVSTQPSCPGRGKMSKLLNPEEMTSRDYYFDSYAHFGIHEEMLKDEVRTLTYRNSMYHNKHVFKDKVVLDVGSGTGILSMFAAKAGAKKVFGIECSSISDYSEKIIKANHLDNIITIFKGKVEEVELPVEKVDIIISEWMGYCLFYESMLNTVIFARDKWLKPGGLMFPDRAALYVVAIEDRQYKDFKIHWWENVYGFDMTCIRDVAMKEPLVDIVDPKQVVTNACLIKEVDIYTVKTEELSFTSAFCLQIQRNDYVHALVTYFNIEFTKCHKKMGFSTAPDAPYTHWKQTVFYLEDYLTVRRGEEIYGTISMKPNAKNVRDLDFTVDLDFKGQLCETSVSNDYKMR
Substrates. Peptide representative of human histone H4 residues 31-45 was synthesized with an N-terminal linker-affinity tag motif and a C-terminal amide cap by 21st Century Biochemicals. The peptide was purified by high-performance liquid chromatography (HPLC) to greater than 95% purity and confirmed by liquid chromatography mass spectrometry (LC-MS). The sequence was Biot-Ahx-[…]-amide (SEQ ID NO.:8).
The resulting construct encodes an N-terminal GST tag and a thrombin cleavage sequence
Protein Expression. E. coli (BL21(DE3) Gold, Stratagene) made competent by the CaCl2 method were transformed with the PRMT8 construct and ampicillin selection. Protein over-expression was accomplished by growing the PRMT8 expressing E. coli clone and inducing expression with 0.3 mM IPTG at 16° C. The culture was grown for 12 hours, harvested by centrifugation, and stored at −80° C. for purification.
Protein Purification. […] GST-tagged PRMT8 was eluted with 50 mM Tris, 2 mM glutathione, pH 7.8. Pooled fractions were cleaved by thrombin (10 U) and dialysed in buffer A. GST was removed by reloading the cleaved protein sample onto glutathione sepharose column and PRMT8 was collected in the flow-through fractions. PRMT8 was purified further by ceramic hydroxyapatite chromatography. The column was washed with 50 mM phosphate buffer, 100 mM NaCl, 5% glycerol, 5 mM β-mercaptoethanol, pH 7.8 and PRMT8 was eluted by 100 mM phosphate in the same buffer. Protein was concentrated and buffer was exchanged to 50 mM Tris, 300 mM NaCl, 10% glycerol, 5 mM β-mercaptoethanol, pH 7.8 by ultrafiltration. The purity of recovered protein was 89%.
General Procedure for PRMT8 Enzyme Assays on Peptide Substrates. The assays were all performed in a buffer consisting of 20 mM Bicine (pH=7.6), 1 mM TCEP, 0.005% BSG, and 0.002% Tween 20, prepared on the day of use. Compounds in 100% DMSO (1 ul) were spotted into a polypropylene 384-well V-bottom plates (Greiner) using a Platemate Plus outfitted with a 384-channel head (Thermo Scientific). DMSO (1 ul) was added to Columns 11, 12, 23, 24, rows A-H for the maximum signal control and 1 ul of SAH, a known product and inhibitor of PRMT8, was added to columns 11, 12, 23, 24, rows I-P for the minimum signal control. A cocktail (40 ul) containing the PRMT8 enzyme was added by Multidrop Combi (Thermo-Fisher). The compounds were allowed to incubate with PRMT8 for 30 min at room temperature, then a cocktail (10 ul) containing ^3H-SAM and peptide was added to initiate the reaction (final volume=51 ul). The final concentrations of the components were as follows: PRMT8 was 1.5 nM, ^3H-SAM was 50 nM, non-radiolabeled SAM was 550 nM, peptide was 150 nM, SAH in the minimum signal control wells was 1 mM, and the DMSO concentration was 2%. The assays were stopped by the addition of non-radiolabeled SAM (10 ul) to a final concentration of 400 uM, which dilutes the ^3H-SAM to a level where its incorporation into the peptide substrate is no longer detectable. 50 ul of the reaction in the 384-well polypropylene plate was then transferred to a 384-well Flashplate and the biotinylated peptides were allowed to bind to the streptavidin surface for at least 1 hour before being washed once with 0.1% Tween20 in a Biotek EL×405 plate washer. […]

[2] abbreviates: In Cell Western EC30, RKO cells, 72 hours, single experiment or average of multiple experiments, read-out: RGG ICW.
Where [3] appears, read: In Cell Western, RKO cells, 72 hours, read-out: RGG ICW EC30.
[4] abbreviates: RKO, 72 h, read-out: RGG ICW EC30.

Like-named read-outs stand apart in the source and are kept apart here. Some results are limits rather than exact numbers.

For the compound `CNCCN(C)Cc1nn(C)c2ccc(OCC(C)C)cc12` [Compound 3, N^1-((5-iso-butoxy-1-methyl-1H-indazol-3-yl)methyl)-N^1,N^2-dimethylethane-1,2-diamine], the EC30 in experiment [1] (setting [2]) was 14 µM; in experiment [1] (setting [3]), over 12 µM. In the case of `CNCCN(C)Cc1n[nH]c2ccc(OCCOC)cc12` [Compound 5, N^1-((5-(2-methoxyethoxy)-1H-indazol-3-yl)methyl)-N^1,N^2-dimethylethane-1,2-diamine], the EC30 was 11.4 µM in experiment [1] (setting [2]) and 3.01 to 12 µM in experiment [1] (setting [3]). Consider `CNCCN(C)Cc1n[nH]c2ccc(OCCCOC)cc12` [Compound 6], for which the EC30 in experiment [1] (setting [2]) was 1.55 µM; in experiment [1] (setting [3]), under 3 µM. Regarding `CNCCN(C)Cc1n[nH]c2ccc(OCCc3ccccc3)cc12` [Compound 7], the EC30 was 0.791 µM in experiment [1] (setting [2]) and under 3 µM in experiment [1] (setting [3]). In the same order, the values of `CNCCN(C)Cc1n[nH]c2ccc(OCCC(C)C)cc12` [Compound 8] are 0.93 µM and under 3 µM.

Regarding `CNCCN(C)Cc1n[nH]c2ccc(OC(C)Cc3ccccc3)cc12` (stereo not drawn) [Compound 9], the EC30 in experiment [1] (setting [2]) was 3.43 µM; in experiment [1] (setting [3]) it was 3.01 to 12 µM. `CNCCN(C)Cc1n[nH]c2ccc(Oc3ccccc3)cc12` [Compound 10, N^1,N^2-dimethyl-N^1-((5-phenoxy-1H-indazol-3-yl)methyl)ethane-1,2-diamine]: the EC30 in experiment [1] (setting [2]) was 3.83 µM; in experiment [1] (setting [3]) it was 3.01 to 12 µM. In the same order, the values of `CNCCN(C)Cc1n[nH]c2ccc(OC3CCCC3)cc12` [Compound 11] are 0.724 µM and under 3 µM.

As to `CNCCN(C)Cc1n[nH]c2ccc(OCc3ccccn3)cc12` [Compound 12], the EC30 in experiment [1] (setting [2]) was 6.06 µM; in experiment [1] (setting [3]), 3.01 to 12 µM. Take `CNCCN(C)Cc1n[nH]c2ccc(OCc3ccc(C#N)cc3)cc12` [Compound 13]: the EC30 is 3.81 µM in experiment [1] (setting [2]) and 3.01 to 12 µM in experiment [1] (setting [3]). In the same order, the values of `CNCCN(C)Cc1n[nH]c2ccc(OCc3cccc(C#N)c3)cc12` [Compound 14] are 4.14 µM and 3.01 to 12 µM. For the compound `CNCCN(C)Cc1n[nH]c2ccc(OCc3cc[nH]n3)cc12` [Compound 17], the EC30 in experiment [1] (setting [4]) was over 12 µM; in experiment [1] (setting [2]) it was 8.99 µM. As for `CNCCN(C)Cc1n[nH]c2ccc(OC3CCCCC3)cc12` [Compound 18], the EC30 in experiment [1] (setting [2]) was 0.582 µM; in experiment [1] (setting [3]) it was under 3 µM. As to `CNCCN(C)Cc1n[nH]c2ccc(Oc3ccccc3OC)cc12` [Compound 24], the EC30 is 1.93 µM in experiment [1] (RKO, 72 h, read-out: RGG ICW) and under 3 µM in experiment [1] (setting [4]).

As to `CNCCN(C)Cc1n[nH]c2ccc(OC3CCOC3)cc12` (stereo not drawn) [Compound 25, N^1,N^2-dimethyl-N^1-((5-((tetrahydrofuran-3-yl)oxy)-1H-indazol-3-yl)methyl)ethane-1,2-diamine], the EC30 in experiment [1] (setting [2]) is 2.66 µM; in experiment [1] (setting [3]) it was under 3 µM. On to `CNCCN(C)Cc1n[nH]c2ccc(Oc3cccc(C)c3)cc12` [Compound 26], for which the EC30 in experiment [1] (RKO, 72 h, read-out: RGG ICW) is 3.07 µM; in experiment [1] (setting [4]), 3.01 to 12 µM. Turning to `CNCCN(C)Cc1n[nH]c2ccc(Oc3cccc(Cl)c3)cc12` [Compound 27, N^1-((5-(3-chlorophenoxy)-1H-indazol-3-yl)methyl)-N^1,N^2-dimethylethane-1,2-diamine], the EC30 is 4.47 µM in experiment [1] (RKO, 72 h, read-out: RGG ICW) and 3.01 to 12 µM in experiment [1] (setting [4]). Consider `CNCCN(C)Cc1n[nH]c2ccc(Oc3cccc(C#N)c3)cc12` [Compound 28], for which the EC30 is 4.62 µM in experiment [1] (RKO, 72 h, read-out: RGG ICW) and 3.01 to 12 µM in experiment [1] (setting [4]). As to `CNCCN(C)Cc1n[nH]c2ccc(OC3CCOCC3)cc12` [Compound 29, N^1,N^2-dimethyl-N^1-((5-((tetrahydro-2H-pyran-4-yl)oxy)-1H-indazol-3-yl)methyl)ethane-1,2-diamine], the EC30 was 5.04 µM in experiment [1] (RKO, 72 h, read-out: RGG ICW) and 3.01 to 12 µM in experiment [1] (setting [4]). With `CNCCN(C)Cc1n[nH]c2ccc(Oc3ccccc3Cl)cc12` [Compound 30], the EC30 was 7.2 µM in experiment [1] (RKO, 72 h, read-out: RGG ICW) and 3.01 to 12 µM in experiment [1] (setting [4]). The corresponding values for `CNCCN(C)Cc1nn(C)c2ccc(OCc3ccc(C#N)cc3)cc12` [Compound 32] are 8.9 µM and 3.01 to 12 µM. The corresponding values for `CNCCN(C)Cc1c2cc(OCc3ccc(C#N)cc3)ccc2nn1C(C)C` [Compound 34] are over 20 µM and over 12 µM. As for `CNCCN(C)Cc1n[nH]c2ccc(O)cc12` [Compound 36, 3-((methyl(2-(methylamino)ethyl)amino)methyl)-1H-indazol-5-ol], the EC30 was over 20 µM in experiment [1] (setting [2]) and over 12 µM in experiment [1] (setting [3]). On to `CNCCN(C)Cc1n[nH]c2ccc(Oc3ccc(C#N)cc3)cc12` [Compound 37], for which the EC30 in experiment [1] (setting [2]) was over 20 µM; in experiment [1] (setting [3]) it was over 12 µM. In the same order, the values of `CNCCN(C)Cc1nn(C2CCN(C(C)=O)CC2)c2ccc(OCc3ccc(C#N)cc3)cc12` [Compound 38] are over 20 µM and over 12 µM. `CNCCN(C)Cc1n[nH]c2ccc(Oc3ccc(C(F)(F)F)cc3)cc12` [Compound 39]: the EC30 was over 20 µM in experiment [1] (RKO, 72 h, read-out: RGG ICW) and over 12 µM in experiment [1] (setting [4]).

In general, IC50 refers to the concentration needed to halve the response being measured. With `CNCCN(C)Cc1n[nH]c2cccc(OCCC(O)CO)c12` (stereo not drawn) [Compound 40], the IC50 on human PRMT8 lay in the range of 1.01 to 3 µM. On to `CNCCN(C)Cc1n[nH]c2cccc(OCCCC(O)CO)c12` (stereo not drawn) [Compound 41, 5-((3-((methyl(2-(methylamino)ethyl)amino)methyl)-1H-indazol-4-yl)oxy)pentane-1,2-diol], for which the IC50 on human PRMT8 was 1.01 to 3 µM.
